Results on 7 molecules are retold here after patent US6407132B1, “Substituted imidazole derivatives and their use as histamine H3 receptor ligands” (James Black Foundation Limited, priority 1997, dated 2002).

Assay [1] concerns the target T1, Histamine H3 receptor (Cavia porcellus, UniProt Q9JI35). Description: ileal longitudinal muscle, myenteric plexus functional assay (shift of R-(α)-methylhistamine E/[A] curves, Schild). The class given is cell-based. More on the design: the longitudinal muscle layer and adhering myenteric plexus was teased away; from tissue; host or cells: guinea pig ileal longitudinal muscle with myenteric plexus. To be noted: guinea pig ileum longitudinal muscle myenteric plexus, electrically stimulated; antagonism of R-(α)-methylhistamine; typical variance ±0.15 log units; read-out: pKB (functional assay) - ileum (converted). The protocol:
The biological activity of the compounds of the examples was measured using the ileal longitudinal muscle, myenteric plexus assay described by Paton and Aboo Zar (J. Physiol. 1968, 194, 13-33). Male Dunkin-Hartley guinea pigs (250-300 g) were employed. Briefly, a 50 cm portion of ileum proximal to the caecum was removed, after discarding the terminal 20 cm. Ileal segments (3 cm) were cleaned by passing Krebs-Henseleit buffer containing 3 μM mepyramine gently through the ileum using a Pasteur pipette (size: 13.8 cm length, 0.65 cm diameter). To avoid unnecessary damage to the tissue, Krebs-Henseleit buffer was passed through the ileal segment, while it was lying horizontally on a petri dish. Therefore, the ileum was not over-distended and the buffer flowed through with ease. Each segment was then passed over a Pasteur pipette and the longitudinal muscle layer and adhering myenteric plexus was teased away using moist cotton wool, by stroking tangentially away from the mesenteric attachment. The tissues were suspended in 20 ml organ baths containing Krebs-Henseleit buffer at 37±1° C. and gassed with 95% CO2/5% O2. The tissues were ligated to two parallel stainless steel wires, situated between two platinum electrodes (0.76 cm length, 0.06 cm diameter). All measurements were recorded isometrically (Grass FTO3 transducer). Following an initial loading tension of 1 g, the tissues were stimulated with electrical pulses at a frequency of 0.1 Hz and a pulse duration of 0.5 msec, as described by Kosterlitz & Watt (Br. J. Pharmacol. 1968, 266-276). Initially, the tissues were stimulated at supramaximal (1.3 fold times maximal) voltage for a period of 30 min and then the tissues were washed and re-stimulated. A “sighter dose” of the selective histamine H3-receptor agonist, R-(α)-methylhistamine (0.3 μM) (Arrang et al. Nature, 1987, 117-123), was administered. Upon generation of response, the “sighter dose” was removed from the tissues by “washout” (6 washes over 60 min) and during this period the electrical stimulation was switched off. The tissues were then re-stimulated and allowed to stabilise prior to the addition of drug treatments, which were allocated on a randomised block basis to the organ baths. Following the incubation period, a single cumulative E/[A] curve was obtained. The experimental E/[A] curve data was expressed as the percentage inhibition of the peak height of electrically-stimulated contraction. Antagonist affinity values were calculated from the degree of rightward shift of the R-(α)-methylhistamine E/[A] curves using Schild's methods (Arunlakshana & Schild Br. J. Pharmacol. 1959, 48-58). Typical variance in this assay is ±0.15 log units.

Assay [2] concerns the target T1, Histamine H3 receptor. Description: Histamine H3 Radioligand Binding Assay - Guinea Pig Ileum ([3H]-R-α-methylhistamine). More on the design: The cortex was dissected, weighed and homogenised in ice-cold 20 mM Hepes-NaOH buffer; from tissue; host or cells: guinea pig brain cortex membranes. To be noted: guinea pig ileum longitudinal muscle myenteric plexus membranes; 3 nM [3H]-R-α-methylhistamine; typical variance 0.12 log units; read-out: pKI (binding assay) - ileum (converted). On the procedure:
Histamine H3 Radioligand Binding Assay—Guinea Pig Ileum
Male Dunkin Hartley guinea pigs (200-300 g) were used. The small intestine was rapidly removed (cut ˜5 cm from caecum and 5 cm from stomach) and placed in ice-cold 20 mM Hepes-NaOH buffer (pH7.4 at 21±3° C.). The tissue was cut into ˜10 cm segments, flushed through with ice-cold 20 mM Hepes-NaOH buffer and placed in a beaker containing fresh buffer at 4° C. 10 cm segments of ileum were threaded onto a glass pipette and the longitudinal muscle myenteric plexus was peeled away from the circular muscle using damp cotton-wool. […]
Guinea pig ileum longitudinal muscle myenteric plexus membranes (400μl) were incubated for 165 min at 21±3° C. in a final volume of 500 μl with 20 mM Hepes-NaOH buffer containing [^3H]-R-α-methylhistamine (50 μl; 3 nM) and competing compound. […] The filters were washed (3×3 ml) with ice-cold 50 mM Tris-HCl (pH6.9 at 21±3° C.), transferred into scintillation vials, 5 ml liquid scintillation cocktail was added and after 4 hours the bound radioactivity was determined by counting (4 min) in a Beckman liquid scintillation counter.
Data are analysed using GraphPad prism and the general equation for a competition curve with variable Hill slope (nH). […]
KD is the equilibrium dissociation constant for the radioligand determined by saturation experiments. […]

Assay [3] deals with T1, Histamine H3 receptor. As to the kind of experiment: Histamine H3 Radioligand Binding Assay - Guinea Pig Cortex ([3H]-R-α-methylhistamine). More on the design: The cortex was dissected, weighed and homogenised in ice-cold 20 mM Hepes-NaOH buffer; from tissue; host or cells: guinea pig brain cortex membranes. To be noted: guinea pig cortex membranes; 0.1 nM [3H]-R-α-methylhistamine; typical variance ±0.12 log units; read-out: pKI (binding assay) - cortex (converted). On the procedure: Histamine H3 Radioligand Binding Assay—Guinea Pig Cortex
Male Dunkin Hartley guinea pigs (200-300 g) were used. The whole brain was removed and immediately placed in ice-cold 20 mM Hepes-NaOH buffer (pH7.4 at 21±3° C.). The cortex was dissected, weighed and homogenised in ice-cold 20 mM Hepes-NaOH buffer (pH7.4 at 21±3° C.) (50 ml/guinea-pig cortex) using a polytron (Kinematica AG, PT-DA 3020/2TS, 3×3s). The homogenate was centrifuged at 100×g for 5 min and the supernatants pooled and stored at 4° C. The pellets were rehomogenised in fresh ice-cold buffer (80 ml) and recentrifuged (100×g for 5 min). The supernatants were pooled and pellets rehomogenised and recentrifuged (100×g for 5 min). All supernatants were pooled and centrifuged at 39,800×g for 12 min at 4° C. The final pellet was resuspended in 20 mM Hepes-NaOH buffer (pH7.4 at 21±3° C.) to a tissue concentration of 7.5 mg.ml^−1, using a teflon-in-glass homogeniser.
Incubation Conditions and Data Analysis
These were essentially identical to those used for the guinea pig ileum myenteric plexus assay described above, except that the final assay concentration of [^3H]-R-α-methylhistamine was 0.1 nM. Typical variance in this binding assay is ±0.12 log units.

T1 sequence (Q9JI35 whole entry): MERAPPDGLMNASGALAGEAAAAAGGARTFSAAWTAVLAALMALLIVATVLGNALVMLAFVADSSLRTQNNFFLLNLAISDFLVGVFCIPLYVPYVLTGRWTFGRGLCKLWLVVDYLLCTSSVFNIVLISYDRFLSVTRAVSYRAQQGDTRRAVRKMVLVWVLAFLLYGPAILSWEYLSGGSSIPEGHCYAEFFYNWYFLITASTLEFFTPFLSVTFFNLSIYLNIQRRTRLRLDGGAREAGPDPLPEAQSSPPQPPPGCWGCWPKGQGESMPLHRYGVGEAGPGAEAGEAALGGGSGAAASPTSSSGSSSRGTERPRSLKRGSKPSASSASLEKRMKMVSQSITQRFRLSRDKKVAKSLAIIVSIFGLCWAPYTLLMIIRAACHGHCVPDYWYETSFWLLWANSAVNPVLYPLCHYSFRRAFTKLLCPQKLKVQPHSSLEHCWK

As for `O=S(=O)(NCc1ccc(Cc2c[nH]cn2)cc1)c1ccc2ccccc2c1` [Example 1], at Histamine H3 receptor [1], the Kb is 229 nM. Besides, the results for the Ki on Histamine H3 receptor [2] and on Histamine H3 receptor [3] were 339 nM and 324 nM, respectively.
For `O=S(=O)(Cc1ccc(Cl)cc1)NCc1ccc(Cc2c[nH]cn2)cc1` [Example 2, C-(4-Chlorophenyl)-N-[4-(1H-imidazol-4-ylmethyl)-benzyl]-methanesulfonamide] the same measures were 70.8 nM, 141 nM and 28.8 nM.
As for `O=S(=O)(NCc1ccc(Cl)cc1)NCc1ccc(Cc2c[nH]cn2)cc1` [Example 3, N-(4-Chloro-benzyl)-N′-[4-(1H-imidazol-4-ylmethyl)-benzyl]-sulfamide], the Kb on Histamine H3 receptor [1] was 112 nM. Besides, the Ki at Histamine H3 receptor [3] is 15.8 nM.
For `O=S(=O)(Cc1ccc(Cl)cc1)Nc1ccc(Cc2c[nH]cn2)cc1` [Example 4, C-(4-Chloro-phenyl)-N-[4-(1H-imidazol-4-ylmelhyl)-phenyl]-methanesulfonamide] the same measures were 407 nM and 93.3 nM.
For the molecule `O=S(=O)(Cc1ccc(Cl)cc1)Nc1ccc(-c2c[nH]cn2)cc1` [Example 5, C-(4-Chloro-phenyl)-N-[4-(1H-imidazol-4-yl)-pheriyl]-methanesulfonamide], at Histamine H3 receptor [3], the Ki is 1410 nM.
Still for that read-out and setting: with `O=S(=O)(Cc1ccc(Cl)cc1)NCc1cccc(Cc2c[nH]cn2)c1` [Example 6, C-(4-Chloro-phenyl)-N-[3-(1H-imidazol-4-ylmethyl)-benzyl]-methanesulfonamide] the figure was 372 nM.
Consider `O=S(=O)(Cc1ccc(Cl)cc1)NCCc1ccc(Cc2c[nH]cn2)cc1` [Example 7, C-(4-Chloro-phenyl)-N-{2-[4-(1H-imidazol-4-ylmethyl)-phenyl]-ethyl}-methanesulfonamide], for which the Kb on Histamine H3 receptor [1] is 955 nM. Also, the Ki at Histamine H3 receptor [3] was 288 nM.
